Source: patent US11807606B2, “Sulfonamide derivatives for protein degradation” (DANA-FARBER CANCER INSTITUTE, INC., priority 2018, dated 2023)

Molecular target: DCAF15 and RRM2 domain in RBM39 (Homo sapiens (Human), UniProt Q14498+Q66K64)
Assay: TR-FRET biochemical assay, DCAF15 activity (recruitment of RBM39 RRM2 domain to DCAF15)
Assay type: binding
Conditions: TR-FRET 520/490 nm ratio; biotinylated DCAF15 200 nM, Bodipy-FL RBM39 RRM2 200 nM, Tb-streptavidin 2 nM
Protocol: Increasing concentrations of compounds were added to pre-mixed biotinylated DCAF15 at 200 nM, Bodipy-FL-labelled RRM2 domain in RBM39 at 200 nM, and terbium (Tb)-coupled streptavidin at 2 nM (Invitrogen) in 384-well microplates in a buffer containing 50 mM Tris pH 7.5, 100 mM NaCl, 0.1% pluronic acid and 2% DMSO. Before TR-FRET measurements were conducted, the reactions were incubated for 15 min at room temperature. After excitation of terbium (Tb) fluorescence at 337 nm, emission at 490 nm (Tb) and 520 nm (Bodipy-FL) were recorded with a 70 μs delay to reduce background fluorescence and the reaction was followed over 1 h by recording 60 technical replicates of each data point using a PHERAstar FS microplate reader (BMG Labtech). The TR-FRET signal of each data point was extracted by calculating the 520/490 nm ratio. Data were analyzed with GraphPad Prism 7.

Sequence of DCAF15 and RRM2 domain in RBM39 (Q66K64 whole entry, the tested form may be a part): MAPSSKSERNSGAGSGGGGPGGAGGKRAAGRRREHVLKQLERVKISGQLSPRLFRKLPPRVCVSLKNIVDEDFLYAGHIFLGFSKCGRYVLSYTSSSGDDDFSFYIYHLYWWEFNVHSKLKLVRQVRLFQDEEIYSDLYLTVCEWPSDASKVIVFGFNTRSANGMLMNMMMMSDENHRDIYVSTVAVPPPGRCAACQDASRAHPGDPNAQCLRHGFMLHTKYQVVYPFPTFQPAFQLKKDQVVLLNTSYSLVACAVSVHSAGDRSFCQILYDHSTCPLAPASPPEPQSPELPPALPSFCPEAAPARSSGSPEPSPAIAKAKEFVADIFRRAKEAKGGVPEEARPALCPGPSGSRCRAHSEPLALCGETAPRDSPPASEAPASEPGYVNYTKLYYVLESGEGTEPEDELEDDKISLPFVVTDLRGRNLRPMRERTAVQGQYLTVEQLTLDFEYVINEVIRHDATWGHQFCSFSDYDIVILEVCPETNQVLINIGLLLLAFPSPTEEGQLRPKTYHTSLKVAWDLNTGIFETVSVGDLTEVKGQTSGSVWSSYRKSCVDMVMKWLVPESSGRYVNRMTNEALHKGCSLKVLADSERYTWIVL
Sequence of DCAF15 and RRM2 domain in RBM39 (Q14498 250-328): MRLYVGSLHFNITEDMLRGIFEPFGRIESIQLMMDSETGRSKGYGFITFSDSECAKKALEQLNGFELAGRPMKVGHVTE
Sequence of DCAF15 and RRM2 domain in RBM39 (Q16531 whole entry partner, the tested form may be a part): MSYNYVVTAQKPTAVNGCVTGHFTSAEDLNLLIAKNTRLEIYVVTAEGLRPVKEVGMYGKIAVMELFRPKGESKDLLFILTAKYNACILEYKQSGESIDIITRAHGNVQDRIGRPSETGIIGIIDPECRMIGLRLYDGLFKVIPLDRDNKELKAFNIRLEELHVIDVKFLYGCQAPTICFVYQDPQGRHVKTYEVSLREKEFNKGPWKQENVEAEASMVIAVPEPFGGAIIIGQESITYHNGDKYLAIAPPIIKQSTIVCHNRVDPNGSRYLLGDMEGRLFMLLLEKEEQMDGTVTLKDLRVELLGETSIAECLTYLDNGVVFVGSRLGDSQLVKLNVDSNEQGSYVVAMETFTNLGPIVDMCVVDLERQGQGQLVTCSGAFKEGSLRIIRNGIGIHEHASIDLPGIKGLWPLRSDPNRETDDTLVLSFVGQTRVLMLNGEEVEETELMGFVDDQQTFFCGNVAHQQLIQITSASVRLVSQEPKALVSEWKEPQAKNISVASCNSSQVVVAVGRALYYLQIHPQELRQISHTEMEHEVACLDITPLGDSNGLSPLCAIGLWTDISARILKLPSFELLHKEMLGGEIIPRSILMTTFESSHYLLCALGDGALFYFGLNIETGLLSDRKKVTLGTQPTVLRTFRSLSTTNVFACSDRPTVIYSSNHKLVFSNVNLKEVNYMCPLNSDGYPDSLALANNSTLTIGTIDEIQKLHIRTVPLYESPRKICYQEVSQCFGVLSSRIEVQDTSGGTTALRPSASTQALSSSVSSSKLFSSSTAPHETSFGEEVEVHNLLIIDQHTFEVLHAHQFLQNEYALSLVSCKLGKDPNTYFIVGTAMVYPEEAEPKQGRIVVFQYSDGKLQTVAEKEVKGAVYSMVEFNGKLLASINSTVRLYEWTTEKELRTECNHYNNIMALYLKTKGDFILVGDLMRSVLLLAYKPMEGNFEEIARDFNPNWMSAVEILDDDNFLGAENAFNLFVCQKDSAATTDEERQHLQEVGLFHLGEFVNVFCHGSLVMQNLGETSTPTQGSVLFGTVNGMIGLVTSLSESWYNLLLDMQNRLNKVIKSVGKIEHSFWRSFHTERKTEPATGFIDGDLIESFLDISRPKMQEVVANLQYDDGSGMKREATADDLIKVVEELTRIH

Cc1cccc(S(=O)(=O)Nc2ccc(C)c3c(C#N)c[nH]c23)c1 showed an EC50 of 1 to 10 µM.
Compound Cc1ccc(NS(=O)(=O)c2cccc(C(F)(F)F)c2)c2[nH]cc(C#N)c12 has an EC50 of 1 to 10 µM.
Cc1ccc(NS(=O)(=O)c2cccc([N+](=O)[O-])c2)c2[nH]cc(C#N)c12 showed an EC50 of 1 to 10 µM.
Cc1ccc(NS(=O)(=O)c2cccc(N)c2)c2[nH]cc(C#N)c12 was tested, and the EC50 was 1 to 10 µM.
Compound CNC(=O)c1cccc(S(=O)(=O)Nc2ccc(C)c3c(C#N)c[nH]c23)c1 has an EC50 of 1 to 10 µM.
Work on COC(=O)c1cccc(S(=O)(=O)Nc2ccc(C)c3c(C#N)c[nH]c23)c1 yielded an EC50 of 1 to 10 µM.
Cc1ccc(NS(=O)(=O)c2ccc(C#N)cc2)c2[nH]cc(C#N)c12 showed an EC50 of 1 to 10 µM.
Compound Cc1ccc(NS(=O)(=O)c2ccccc2[N+](=O)[O-])c2[nH]cc(C#N)c12 has an EC50 greater than 10 µM.
Cc1ccc(NS(=O)(=O)c2ccc(F)cc2F)c2[nH]cc(C#N)c12 showed an EC50 of 1 to 10 µM.
Work on COC(=O)c1ccc(S(=O)(=O)Nc2ccc(C)c3c(C#N)c[nH]c23)cc1 yielded an EC50 of 1 to 10 µM.
With Cc1ccc(NS(=O)(=O)c2ccc([N+](=O)[O-])cc2)c2[nH]cc(C#N)c12 the EC50 was 1 to 10 µM.
Work on Cc1ccc(NS(=O)(=O)c2cccc(C#N)c2)c2[nH]cc(C=O)c12 yielded an EC50 of 1 to 10 µM.
Cc1ccc(NS(=O)(=O)c2cccc(C#N)c2)c2[nH]ccc12 gave an EC50 greater than 10 µM.
CNC(=O)c1c[nH]c2c(NS(=O)(=O)c3cccc(C#N)c3)ccc(C)c12 showed an EC50 greater than 10 µM.
Compound N#Cc1cccc(S(=O)(=O)Nc2ccc(-c3ccccc3)c3c(C#N)c[nH]c23)c1 has an EC50 greater than 10 µM.
Work on O=S(=O)(Nc1ncnc2[nH]ccc12)c1ccccc1 yielded an EC50 greater than 10 µM.
With Cc1ccc(NS(=O)(=O)c2ccccc2OC(F)(F)F)c2[nH]cc(C#N)c12 the EC50 was greater than 10 µM.
With Cc1ccccc1S(=O)(=O)Nc1ccc(C)c2c(C#N)c[nH]c12 the EC50 was greater than 10 µM.
Cc1ccc(NS(=O)(=O)c2ccccc2C(F)(F)F)c2[nH]cc(C#N)c12 was tested, and the EC50 was greater than 10 µM.
Cc1ccc(NS(=O)(=O)c2ccccc2Br)c2[nH]cc(C#N)c12 gave an EC50 greater than 10 µM.
Compound Cc1ccc(NS(=O)(=O)c2ccccc2)c2[nH]cc(C#N)c12 has an EC50 of 1 to 10 µM.
Compound Cc1ccc(NS(C)(=O)=O)c2[nH]cc(C#N)c12 has an EC50 greater than 10 µM.
CC(=O)Nc1ccc(C)c2c(C#N)c[nH]c12 was tested, and the EC50 was greater than 10 µM.
N#Cc1cccc(S(=O)(=O)Nc2cc(Cl)cc3cc[nH]c23)c1 was tested, and the EC50 was greater than 10 µM.
N#Cc1cccc(S(=O)(=O)Nc2cc(F)cc3c2NC(=O)C3)c1 showed an EC50 greater than 10 µM.
For Cc1ccc(NC(=O)c2cccc(C#N)c2)c2[nH]cc(C#N)c12, the EC50 was greater than 10 µM.
With Cc1ccc(NS(=O)(=O)c2cccc(C#N)c2)c2[nH]cc(Cl)c12 the EC50 was 1 to 10 µM.
For Cc1ccc(NS(=O)(=O)c2cccc(C#N)c2)c2[nH]cc(Br)c12, the EC50 was 1 to 10 µM.
In the case of N#Cc1cccc(S(=O)(=O)Nc2cc(Cl)cc3c(Br)c[nH]c23)c1, the EC50 is reported as greater than 10 µM.
N#Cc1cccc(S(=O)(=O)Nc2ccc3c(C#N)c[nH]c3c2)c1 was tested, and the EC50 was greater than 10 µM.
For N#Cc1cccc(S(=O)(=O)Nc2cccc3c(C#N)c[nH]c23)c1, the EC50 was greater than 10 µM.
CCOC(=O)c1cc2cc(NS(=O)(=O)c3cccc(C#N)c3)ccc2[nH]1 was tested, and the EC50 was greater than 10 µM.
N#Cc1cccc(S(=O)(=O)Nc2ncnc3[nH]ccc23)c1 showed an EC50 greater than 10 µM.
With N#Cc1cccc(S(=O)(=O)Nc2ncnc3[nH]cc(Cl)c23)c1 the EC50 was greater than 10 µM.
In the case of N#Cc1cccc(S(=O)(=O)Nc2cccn3ncnc23)c1, the EC50 is reported as greater than 10 µM.
N#Cc1cccc(S(=O)(=O)Nc2cc(-c3ccccc3)cc3c(C#N)c[nH]c23)c1 was tested, and the EC50 was greater than 10 µM.
For N#Cc1cccc(S(=O)(=O)Nc2cc(-c3ccccc3)cc3cc[nH]c23)c1, the EC50 was greater than 10 µM.
COCCNc1ccc(S(=O)(=O)Nc2ccc(C)c3c(C#N)c[nH]c23)cc1C#N gave an EC50 of 1 to 10 µM.
With N#Cc1cccc(S(=O)(=O)Nc2ccc(-c3ccccc3)c3cc[nH]c23)c1 the EC50 was greater than 10 µM.
N#Cc1cccc(S(=O)(=O)Nc2cccc3c2CNC3=O)c1 was tested, and the EC50 was greater than 10 µM.
Work on CCOC(=O)c1cc2c(C)ccc(NS(=O)(=O)c3cccc(C#N)c3)c2[nH]1 yielded an EC50 greater than 10 µM.
N#Cc1cccc(S(=O)(=O)Nc2cccc(C(N)=O)c2N)c1 was tested, and the EC50 was greater than 10 µM.
N#Cc1cccc(S(=O)(=O)Nc2ccc3[nH]cc(C#N)c3c2)c1 showed an EC50 greater than 10 µM.
N#Cc1cccc(S(=O)(=O)Nc2cccc3c(Cl)n[nH]c23)c1 gave an EC50 greater than 10 µM.
